Reference: ChEMBL document CHEMBL5512680, “Design, Synthesis, and Biological Evaluation of New 2,6,7-Substituted Purine Derivatives as Toll-like Receptor 7 Agonists for Intranasal Vaccine Adjuvants” (J Med Chem, 2024)
Calls of active or inactive are those of the source. No cut-off for these calls is given here.

How the values were obtained:
Mus musculus [1] = species on record: Mus musculus; assay: Immunostimulatory activity in BALB/c mouse vaccinated with inactivated PR8 (A/H1N1) assessed as animal survival at 0.01 ug measured 3 weeks after immunization; type: functional; conditions: dose 0.01 µg
Mus musculus [2] = assay: In-vivo protection against influenza A virus PR8 (A/H1N1) infection in immunocompetent BALB/c mouse model assessed as animal survival rate at 1 ug pretreated with compound for 3 weeks followed by viral infection and measured daily for 2 weeks; type: functional; conditions: dose 1 µg; time 5 weeks
Toll-like receptor 7 [3] = molecular target: T1, Toll-like receptor 7 (Mus musculus, UniProt P58681); assay: Agonist activity at mouse TLR7 expressed in HEK293 cells co-expressing NF-kappaB/AP-1 inducible SEAP reporter gene measured for 24 hrs by colorimetric analysis; type: cell-based
T1 sequence (P58681 whole entry): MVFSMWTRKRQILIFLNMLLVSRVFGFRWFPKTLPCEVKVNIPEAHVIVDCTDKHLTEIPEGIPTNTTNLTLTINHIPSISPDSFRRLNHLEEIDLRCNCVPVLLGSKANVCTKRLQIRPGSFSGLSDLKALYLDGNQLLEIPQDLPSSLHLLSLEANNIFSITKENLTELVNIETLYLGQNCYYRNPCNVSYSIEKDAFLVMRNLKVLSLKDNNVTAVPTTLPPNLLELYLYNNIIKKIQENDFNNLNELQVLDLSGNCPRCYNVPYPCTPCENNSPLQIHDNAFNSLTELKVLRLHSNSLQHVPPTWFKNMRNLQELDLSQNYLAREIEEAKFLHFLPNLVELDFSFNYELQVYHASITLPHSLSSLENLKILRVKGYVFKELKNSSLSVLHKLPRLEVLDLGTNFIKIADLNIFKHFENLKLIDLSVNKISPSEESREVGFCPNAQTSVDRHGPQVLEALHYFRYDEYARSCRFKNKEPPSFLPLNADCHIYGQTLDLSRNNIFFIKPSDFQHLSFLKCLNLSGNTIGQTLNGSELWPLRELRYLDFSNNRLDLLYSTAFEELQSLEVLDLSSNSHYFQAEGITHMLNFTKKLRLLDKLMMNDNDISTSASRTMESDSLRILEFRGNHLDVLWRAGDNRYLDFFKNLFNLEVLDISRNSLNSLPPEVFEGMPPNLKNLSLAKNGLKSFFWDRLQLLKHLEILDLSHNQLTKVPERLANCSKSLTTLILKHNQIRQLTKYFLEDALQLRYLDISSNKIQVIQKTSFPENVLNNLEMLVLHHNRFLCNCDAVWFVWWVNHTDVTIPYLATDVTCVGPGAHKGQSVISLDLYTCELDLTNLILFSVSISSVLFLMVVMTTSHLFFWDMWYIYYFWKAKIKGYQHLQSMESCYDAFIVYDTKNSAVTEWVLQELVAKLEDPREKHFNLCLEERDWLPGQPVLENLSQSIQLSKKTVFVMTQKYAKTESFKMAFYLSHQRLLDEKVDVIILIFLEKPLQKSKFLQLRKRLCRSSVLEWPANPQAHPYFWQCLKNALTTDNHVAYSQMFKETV

Mus musculus [4] = species on record: Mus musculus; assay: Immunostimulatory activity in BALB/c mouse vaccinated with inactivated PR8 (A/H1N1) assessed as animal survival at 0.1 ug measured 3 weeks after immunization; type: functional; conditions: dose 0.1 µg
Mus musculus [5] = species on record: Mus musculus; assay: Immunostimulatory activity in BALB/c mouse vaccinated with inactivated PR8 (A/H1N1) assessed as animal survival at 1 ug measured 3 weeks after immunization; type: functional; conditions: dose 1 µg
Toll-like receptor 7 [6] = molecular target: T2, Toll-like receptor 7 (Homo sapiens, UniProt Q9NYK1); assay: Agonist activity at human TLR7 expressed in HEK-blue TLR cells measured for 18 to 19 hrs by SEAP reporter gene based assay; type: cell-based
T2 sequence (Q9NYK1 whole entry): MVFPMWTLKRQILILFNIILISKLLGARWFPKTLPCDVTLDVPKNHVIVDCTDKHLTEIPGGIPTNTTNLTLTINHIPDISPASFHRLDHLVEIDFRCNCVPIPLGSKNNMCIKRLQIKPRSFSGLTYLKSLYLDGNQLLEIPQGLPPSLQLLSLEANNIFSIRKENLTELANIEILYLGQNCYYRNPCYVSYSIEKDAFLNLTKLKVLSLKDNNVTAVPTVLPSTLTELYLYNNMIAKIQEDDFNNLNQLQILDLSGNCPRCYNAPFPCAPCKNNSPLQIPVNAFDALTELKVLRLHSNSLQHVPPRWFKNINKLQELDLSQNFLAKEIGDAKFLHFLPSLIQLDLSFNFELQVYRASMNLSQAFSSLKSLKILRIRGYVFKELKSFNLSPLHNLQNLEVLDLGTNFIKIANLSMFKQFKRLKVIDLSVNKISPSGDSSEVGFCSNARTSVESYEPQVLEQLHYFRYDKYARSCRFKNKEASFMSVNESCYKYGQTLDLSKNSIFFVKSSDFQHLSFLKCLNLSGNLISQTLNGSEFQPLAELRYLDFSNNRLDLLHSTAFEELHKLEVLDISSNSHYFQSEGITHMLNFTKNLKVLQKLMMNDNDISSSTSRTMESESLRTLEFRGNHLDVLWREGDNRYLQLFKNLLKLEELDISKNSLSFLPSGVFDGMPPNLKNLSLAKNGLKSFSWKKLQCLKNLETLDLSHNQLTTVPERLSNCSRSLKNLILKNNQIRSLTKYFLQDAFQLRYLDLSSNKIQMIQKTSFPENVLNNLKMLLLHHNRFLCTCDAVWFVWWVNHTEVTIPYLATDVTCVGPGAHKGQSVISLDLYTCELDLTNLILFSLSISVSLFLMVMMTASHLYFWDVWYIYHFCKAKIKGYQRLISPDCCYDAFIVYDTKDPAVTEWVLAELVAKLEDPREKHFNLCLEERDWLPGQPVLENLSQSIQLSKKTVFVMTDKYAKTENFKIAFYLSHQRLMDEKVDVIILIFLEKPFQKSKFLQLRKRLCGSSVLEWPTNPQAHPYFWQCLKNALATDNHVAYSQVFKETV

Mus musculus [7] = assay: In-vivo protection against influenza A virus PR8 (A/H1N1) infection in immunocompetent BALB/c mouse model assessed as animal survival rate at 0.01 ug pretreated with compound for 3 weeks followed by viral infection and measured daily for 2 weeks; type: functional; conditions: dose 0.01 µg; time 5 weeks
Toll-like receptor 8 = molecular target: T3, Toll-like receptor 8 (Homo sapiens, UniProt Q9NR97); assay: Agonist activity at human TLR8 expressed in HEK-blue TLR cells measured for 18 to 19 hrs by SEAP reporter gene based assay; type: cell-based
T3 sequence (Q9NR97 whole entry): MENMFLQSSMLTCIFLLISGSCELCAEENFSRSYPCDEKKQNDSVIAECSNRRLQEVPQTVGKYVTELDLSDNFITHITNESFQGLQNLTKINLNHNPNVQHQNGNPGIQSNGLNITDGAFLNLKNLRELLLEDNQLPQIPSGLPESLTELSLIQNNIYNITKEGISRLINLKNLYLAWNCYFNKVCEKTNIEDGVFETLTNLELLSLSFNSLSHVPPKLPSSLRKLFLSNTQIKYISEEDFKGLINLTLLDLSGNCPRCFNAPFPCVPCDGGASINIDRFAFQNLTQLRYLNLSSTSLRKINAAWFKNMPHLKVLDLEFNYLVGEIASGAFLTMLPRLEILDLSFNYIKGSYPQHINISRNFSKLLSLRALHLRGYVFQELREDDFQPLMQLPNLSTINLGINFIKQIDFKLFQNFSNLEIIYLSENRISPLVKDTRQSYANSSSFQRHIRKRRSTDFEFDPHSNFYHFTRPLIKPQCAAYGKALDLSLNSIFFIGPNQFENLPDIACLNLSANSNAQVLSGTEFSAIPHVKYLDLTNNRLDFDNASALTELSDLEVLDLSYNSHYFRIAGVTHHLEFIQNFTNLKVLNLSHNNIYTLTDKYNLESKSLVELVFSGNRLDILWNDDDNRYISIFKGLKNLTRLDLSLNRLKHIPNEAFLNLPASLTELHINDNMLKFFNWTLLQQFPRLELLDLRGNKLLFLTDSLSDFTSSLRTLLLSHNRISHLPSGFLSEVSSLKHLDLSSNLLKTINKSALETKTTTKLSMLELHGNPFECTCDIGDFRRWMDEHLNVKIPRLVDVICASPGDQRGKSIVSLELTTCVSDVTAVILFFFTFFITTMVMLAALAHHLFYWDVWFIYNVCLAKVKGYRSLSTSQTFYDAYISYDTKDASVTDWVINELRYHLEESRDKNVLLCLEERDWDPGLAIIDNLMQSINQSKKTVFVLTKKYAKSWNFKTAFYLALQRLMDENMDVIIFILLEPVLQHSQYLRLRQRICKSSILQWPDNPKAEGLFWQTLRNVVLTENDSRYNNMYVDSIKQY

Toll-like receptor 7 [8] = molecular target: T2, Toll-like receptor 7; assay: Agonist activity at TLR7 (unknown origin)
Mus musculus [9] = species on record: Mus musculus; assay: Immunostimulatory activity in BALB/c mouse vaccinated with inactivated PR8 (A/H1N1) assessed as decrease in body weight at 1 ug measured 3 weeks after immunization; type: functional, organism-based; conditions: dose 1.0 µg
[10] = molecular target: T4, Toll-like receptor 7 (Mus musculus) (UniProt P58681); assay: Agonist activity at mouse TLR7 expressed in HEK293 cells co-expressing NF-kappaB/AP-1 inducible SEAP reporter gene at 33 uM measured for 24 hrs by colorimetric analysis relative to control; type: cell-based
T4 sequence (whole entry): T1 sequence (P58681 whole entry)

[11] = In-vivo activation of mouse TLR7-mediated innate immune response in immunocompetent BALB/c mouse vaccinated with inactivated influenza A virus H1N1 A/Puerto Rico/8/1934 assessed as fold increase in IgG2a level in serum at 1 ug measured 3 weeks after immunization in presence of N6-butyl-7-(4-((diethylamino)methyl)-2-methoxybenzyl)-7H-purine-2,6-diamine by ELISA analysis; type: functional; conditions: dose 1 µg

`CCCCNc1nc(N)nc2ncn(Cc3ccc(CN(CC)CC)cc3OC)c12` gave a Survival (Mus musculus [1]) of 16.7%, a Survival (Mus musculus [2]) of 100% and an EC50 (Toll-like receptor 7 [3]) of 41.7 nM. For the same compound, the Survival (Mus musculus [4]) was 33.3%, the Survival (Mus musculus [5]) was 66.7% and the EC50 (Toll-like receptor 7 [6]) was 17.5 nM. It also gave a Survival (Mus musculus [7]) of 16.7%.
`COc1cc(CO)ccc1Cn1cnc2nc(N)nc(NCc3ccccc3)c21` showed an EC50 (Toll-like receptor 7 [6]) of 2800 nM.
Work on `CCOCc1nc2c(N)nc3ccccc3c2n1CC(C)(C)C` yielded an EC50 (Toll-like receptor 7 [3]) of 299 nM.
For `CCCN(CCC)C(=O)C1=Cc2ccc(-c3ccc(C(=O)N4CCCC4)cc3)cc2N=C(N)C1` [MOTOLIMOD], the EC50 (Toll-like receptor 8) was 83.2 nM.
Work on `CCCCNc1nc(N)nc2ncn(Cc3ccc(CN4CCCCC4)cc3OC)c12` yielded an EC50 (Toll-like receptor 7 [6]) of 20.5 nM.
Compound `CC(C)Cn1cnc2c(N)nc3ccccc3c21` [IMIQUIMOD] has an EC50 (Toll-like receptor 7 [8]) of 202 nM.
With `CCCCNc1nc(N)nc2ncn(Cc3ccc(CN(C)C)cc3OC)c12` the EC50 (Toll-like receptor 7 [6]) was 29.7 nM.
In the case of `CCCCOc1nc(N)c2c(n1)N(Cc1cccc(CN3CCCC3)c1)CC(=O)N2` [VESATOLIMOD], the Activity (Mus musculus [9]) is reported as “Active”, the EC50 (Toll-like receptor 7 [3]) is reported as 4570 nM and the Emax [10] is reported as 0.657%. For the same compound, the “fold change (FC)” value [11] was 5.2.
With `CCCCNc1nc(N)nc2ncn(Cc3ccc(CN4CCNCC4)cc3OC)c12` the EC50 (Toll-like receptor 7 [6]) was 169 nM.
`CCCCNc1nc(N)nc2ncn(Cc3ccc(CN4CCN(C)CC4)cc3OC)c12` gave an EC50 (Toll-like receptor 7 [6]) of 24.7 nM and an EC50 (Toll-like receptor 8; hek-blue tlr) of under 10000 nM.
